{
  "source": "paper PMC8963254",
  "about": "“Effects of Lysine N-ζ-Methylation in Ultrashort Tetrabasic Lipopeptides (UTBLPs) on the Potentiation of Rifampicin, Novobiocin, and Niclosamide in Gram-Negative Bacteria” (Antibiotics, 2022)",
  "key": {"[1]": {"test_system": "P. aeruginosa PAO1", "format": "cell-based, Pseudomonas aeruginosa", "details": "PAO1, 18 h", "procedure,_shortened": "(§1)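 Minimum inhibitory concentration came from a CLSI broth dilution assay: 18 h at 37 °C, inoculum 5 × 10^5 CFU/mL final.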"}, "[2]": {"test_system": "A. baumannii ATCC 17978", "format": "cell-based, Acinetobacter baumannii", "details": "ATCC 17978, 18 h", "procedure,_shortened": "as §1"}, "[3]": {"test_system": "E. faecium ATCC 27270", "format": "cell-based, Enterococcus faecium", "details": "ATCC 27270, 18 h", "procedure,_shortened": "as §1"}, "[4]": {"test_system": "P. aeruginosa PA259-96196", "assay": "microbe, parasite or virus in culture", "format": "cell-based, Pseudomonas aeruginosa", "details": "PA259-96196, 18 h", "procedure,_shortened": "as §1"}, "[5]": {"test_system": "P. aeruginosa PA262-101856", "assay": "microbe, parasite or virus in culture", "format": "cell-based, Pseudomonas aeruginosa", "details": "PA262-101856, 18 h", "procedure,_shortened": "as §1"}, "[6]": {"test_system": "A. baumannii AB027", "assay": "microbe, parasite or virus in culture", "format": "cell-based, Acinetobacter baumannii", "details": "AB027, 18 h", "procedure,_shortened": "as §1"}, "[7]": {"test_system": "A. baumannii AB92247", "assay": "microbe, parasite or virus in culture", "format": "cell-based, Acinetobacter baumannii", "details": "AB92247, 18 h", "procedure,_shortened": "as §1"}, "[8]": {"test_system": "E. cloacae 118564", "assay": "microbe, parasite or virus in culture", "format": "cell-based, Enterobacter cloacae", "details": "118564, 18 h", "procedure,_shortened": "as §1"}, "[9]": {"test_system": "K. pneumoniae 113250", "assay": "microbe, parasite or virus in culture", "format": "cell-based, Klebsiella pneumoniae", "details": "113250, 18 h", "procedure,_shortened": "as §1"}, "[10]": {"test_system": "MRSE 61589", "format": "cell-based, Staphylococcus epidermidis", "details": "61589, 18 h", "procedure,_shortened": "as §1"}, "[11]": {"test_system": "MSSE 81388", "format": "cell-based, Staphylococcus epidermidis", "details": "18 h", "procedure,_shortened": "as §1"}, "[12]": {"test_system": "P. aeruginosa PA262-101856", "format": "cell-based, Pseudomonas aeruginosa", "details": "for MICUTBLP: UTBLP alone", "procedure,_shortened": "(§2)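 Checkerboard synergy assay: antibiotic and OMP combined at varying concentrations with 5 × 10^5 CFU/mL inoculum (final), 37 °C, 18 h; growth read as turbidity at 590 nm. FICI = sum of FICs (MIC in combination / MIC alone); ≤0.5 synergistic, 0.5–4 additive, >4 antagonistic.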"}, "[13]": {"test_system": "E. coli 94393", "format": "cell-based, Escherichia coli", "details": "for MICUTBLP: UTBLP alone", "procedure,_shortened": "as §2"}, "[14]": {"test_system": "E. coli 94474", "format": "cell-based, Escherichia coli", "details": "for MICUTBLP: UTBLP alone", "procedure,_shortened": "as §2"}, "[15]": {"test_system": "E. coli ATCC 25922", "format": "cell-based, Escherichia coli", "details": "for MICUTBLP: UTBLP alone", "procedure,_shortened": "as §2"}, "[16]": {"test_system": "MRSA ATCC 33592", "format": "cell-based, Staphylococcus aureus", "procedure,_shortened": "as §2"}, "[17]": {"test_system": "S. aureus ATCC 29213", "format": "cell-based, Staphylococcus aureus", "procedure,_shortened": "as §2"}, "[18]": {"test_system": "E. faecalis ATCC 29212", "format": "cell-based, Enterococcus faecalis", "procedure,_shortened": "as §2"}, "[19]": {"details": "UTBLP in combination with novobiocin"}, "[20]": {"details": "UTBLP in combination with rifampicin"}, "[21]": {"details": "novobiocin in combination with the UTBLP"}, "[22]": {"details": "rifampicin in combination with the UTBLP"}, "[23]": {"details": "UTBLP in combination with chloramphenicol"}, "[24]": {"details": "chloramphenicol in combination with the UTBLP"}, "[25]": {"details": "UTBLP alone, plate with chloramphenicol"}},
  "note": "Like-named read-outs stand apart in the source and are kept apart here. Non-standard residues stand in square brackets, D forms with d. Residues, ends and D or L forms follow the SMILES beside them. *: point of attachment. Lys(Me2) = CN(C)CCCC[C@H](N)C(=O)O; Octanoyl = CCCCCCCC(=O)*",
  "data": [
    {"smiles": "CCCCCCCC(=O)NCCCC[C@H](NC(=O)CCCCCCC)C(=O)N[C@@H](CCCCN(C)C)C(=O)N[C@@H](CCCCN(C)C)C(=O)N[C@@H](CCCCN(C)C)C(=O)N[C@@H](CCCCN(C)C)C(N)=O", "note": "[UTBLP 7] (Octanoyl-K(Octanoyl)[Lys(Me2)][Lys(Me2)][Lys(Me2)][Lys(Me2)]-NH2)", "values": [
      {"measurement": "MIC", "setting": "[1]", "value": ">128", "unit": "µg/mL"},
      {"measurement": "MIC", "setting": "[2]", "value": 128, "unit": "µg/mL"},
      {"measurement": "MIC", "setting": "[3]", "value": 128, "unit": "µg/mL"},
      {"measurement": "MIC", "setting": "[4]", "value": "> 128", "unit": "µg/mL"},
      {"measurement": "MIC", "setting": "[5]", "value": "> 128", "unit": "µg/mL"},
      {"measurement": "MIC", "setting": "[6]", "value": 128, "unit": "µg/mL"},
      {"measurement": "MIC", "setting": "[7]", "value": 32, "unit": "µg/mL"},
      {"measurement": "MIC", "setting": "[8]", "value": "> 128", "unit": "µg/mL"},
      {"measurement": "MIC", "setting": "[9]", "value": "> 128", "unit": "µg/mL"},
      {"measurement": "MIC", "setting": "[10]", "value": 32, "unit": "µg/mL"},
      {"measurement": "MIC", "setting": "[11]", "value": 32, "unit": "µg/mL"},
      {"measurement": "Interpretation", "setting": "[12]; UTBLP + novobiocin", "value": "Additive (0.5 < x ≤ 4 is additive)"},
      {"measurement": "Interpretation", "setting": "[12]; UTBLP + rifampicin", "value": "Additive (0.5 < x ≤ 4 is additive)"},
      {"measurement": "MICUTBLP", "setting": "[12]; plate with novobiocin", "value": "> 128", "unit": "µg/mL"},
      {"measurement": "MICUTBLP", "setting": "[12]; plate with rifampicin", "value": "> 128", "unit": "µg/mL"},
      {"measurement": "MICUTBLP [MICcombo]", "setting": "[12]; [19]", "value": 16, "unit": "µg/mL"},
      {"measurement": "MICUTBLP [MICcombo]", "setting": "[12]; [20]", "value": 16, "unit": "µg/mL"},
      {"measurement": "MICantibiotic [MICcombo]", "setting": "[12]; [21]", "value": 512, "unit": "µg/mL"},
      {"measurement": "MICantibiotic [MICcombo]", "setting": "[12]; [22]", "value": 512, "unit": "µg/mL"},
      {"measurement": "Interpretation", "setting": "[13]; UTBLP + novobiocin", "value": "Synergy (FICI ≤ 0.5 is synergistic)"},
      {"measurement": "Interpretation", "setting": "[13]; UTBLP + rifampicin", "value": "Synergy (FICI ≤ 0.5 is synergistic)"},
      {"measurement": "MICUTBLP", "setting": "[13]; plate with novobiocin", "value": 64, "unit": "µg/mL"},
      {"measurement": "MICUTBLP", "setting": "[13]; plate with rifampicin", "value": 64, "unit": "µg/mL"},
      {"measurement": "MICUTBLP [MICcombo]", "setting": "[13]; [19]", "value": 4, "unit": "µg/mL"},
      {"measurement": "MICUTBLP [MICcombo]", "setting": "[13]; [20]", "value": 8, "unit": "µg/mL"},
      {"measurement": "MICantibiotic [MICcombo]", "setting": "[13]; [21]", "value": 2, "unit": "µg/mL"},
      {"measurement": "MICantibiotic [MICcombo]", "setting": "[13]; [22]", "value": 0.5, "unit": "µg/mL"},
      {"measurement": "Interpretation", "setting": "[14]; UTBLP + novobiocin", "value": "Synergy (FICI ≤ 0.5 is synergistic)"},
      {"measurement": "Interpretation", "setting": "[14]; UTBLP + rifampicin", "value": "Synergy (FICI ≤ 0.5 is synergistic)"},
      {"measurement": "MICUTBLP", "setting": "[14]; plate with novobiocin", "value": 128, "unit": "µg/mL"},
      {"measurement": "MICUTBLP", "setting": "[14]; plate with rifampicin", "value": 128, "unit": "µg/mL"},
      {"measurement": "MICUTBLP [MICcombo]", "setting": "[14]; [19]", "value": 8, "unit": "µg/mL"},
      {"measurement": "MICUTBLP [MICcombo]", "setting": "[14]; [20]", "value": 16, "unit": "µg/mL"},
      {"measurement": "MICantibiotic [MICcombo]", "setting": "[14]; [21]", "value": 16, "unit": "µg/mL"},
      {"measurement": "MICantibiotic [MICcombo]", "setting": "[14]; [22]", "value": 1, "unit": "µg/mL"},
      {"measurement": "Interpretation", "setting": "[15]; UTBLP + chloramphenicol", "value": "Synergy (FICI ≤ 0.5 is synergistic)"},
      {"measurement": "Interpretation", "setting": "[15]; UTBLP + niclosamide", "value": "Synergy (FICI ≤ 0.5 is synergistic)"},
      {"measurement": "Interpretation", "setting": "[15]; UTBLP + novobiocin", "value": "Synergy (FICI ≤ 0.5 is synergistic)"},
      {"measurement": "Interpretation", "setting": "[15]; UTBLP + rifampicin", "value": "Synergy (FICI ≤ 0.5 is synergistic)"},
      {"measurement": "MICUTBLP", "setting": "[15]; plate with chloramphenicol", "value": 64, "unit": "µg/mL"},
      {"measurement": "MICUTBLP", "setting": "[15]; plate with niclosamide", "value": 64, "unit": "µg/mL"},
      {"measurement": "MICUTBLP", "setting": "[15]; plate with novobiocin", "value": 64, "unit": "µg/mL"},
      {"measurement": "MICUTBLP", "setting": "[15]; plate with rifampicin", "value": 64, "unit": "µg/mL"},
      {"measurement": "MICUTBLP [MICcombo]", "setting": "[15]; [23]", "value": 16, "unit": "µg/mL"},
      {"measurement": "MICUTBLP [MICcombo]", "setting": "[15]; UTBLP in combination with niclosamide", "value": 4, "unit": "µg/mL"},
      {"measurement": "MICUTBLP [MICcombo]", "setting": "[15]; [19]", "value": 2, "unit": "µg/mL"},
      {"measurement": "MICUTBLP [MICcombo]", "setting": "[15]; [20]", "value": 8, "unit": "µg/mL"},
      {"measurement": "MICantibiotic [MICcombo]", "setting": "[15]; [24]", "value": 0.5, "unit": "µg/mL"},
      {"measurement": "MICantibiotic [MICcombo]", "setting": "[15]; niclosamide in combination with the UTBLP", "value": 1, "unit": "µg/mL"},
      {"measurement": "MICantibiotic [MICcombo]", "setting": "[15]; [21]", "value": 2, "unit": "µg/mL"},
      {"measurement": "MICantibiotic [MICcombo]", "setting": "[15]; [22]", "value": 0.125, "unit": "µg/mL"},
      {"measurement": "Interpretation", "setting": "[16]; UTBLP + chloramphenicol", "value": "Additive (0.5 < x ≤ 4 is additive)"},
      {"measurement": "MICUTBLP", "setting": "[16]; [25]", "value": "> 128", "unit": "µg/mL"},
      {"measurement": "MICUTBLP [MICcombo]", "setting": "[16]; [23]", "value": 0.25, "unit": "µg/mL"},
      {"measurement": "MICchloramphenicol [MICcombo]", "setting": "[16]; [24]", "value": 64, "unit": "µg/mL"},
      {"measurement": "MICUTBLP", "setting": "[17]; [25]", "value": "> 128", "unit": "µg/mL"},
      {"measurement": "MICUTBLP [MICcombo]", "setting": "[17]; [23]", "value": 0.25, "unit": "µg/mL"},
      {"measurement": "MICchloramphenicol [MICcombo]", "setting": "[17]; [24]", "value": 8, "unit": "µg/mL"},
      {"measurement": "Interpretation", "setting": "[18]; UTBLP + chloramphenicol", "value": "Additive (0.5 < x ≤ 4 is additive)"},
      {"measurement": "MICUTBLP", "setting": "[18]; [25]", "value": 64, "unit": "µg/mL"},
      {"measurement": "MICUTBLP [MICcombo]", "setting": "[18]; [23]", "value": 8, "unit": "µg/mL"},
      {"measurement": "MICchloramphenicol [MICcombo]", "setting": "[18]; [24]", "value": 4, "unit": "µg/mL"}
    ]}
  ]
}
